Measurements reported in patent US20240382607A1 (priority 2021, published 2024).

Columns and labels:
[1] = tested on: SKBR3 tumor cells (HER2+); experiment: In vitro cytotoxic activity screening, CTG assay, SKBR3; format: cell-based
Procedure: (§1) In this experiment, the ATP content was determined using CTG to reflect the survival condition of the tumor cells. […] The killing effect of the toxin molecule was then assayed according to this condition.
(§2) According to the purpose of the experiment, two disease models of breast cancer and NSCLC were selected, and three cell strains of SKBR3 tumor cells (HER2+, ATCC, Cat #HTB-30), MDA-MB-468 (HER2-, ATCC, Cat #HTB-132) and A549 (human non-small cell lung cancer cells, ATCC, Cat #CCL-185) were selected for screening.
(§3) The cells were counted, and 4.3×10^5, 7.2×10^5 and 11.5×10^5 cells were each added to a culture solution to give a final volume of 26 mL. 180 μL of cell suspension was added to each well in columns 2 to 11 of a 96-well plate (Corning, Cat #3903) to give cell densities of 3K, 5K and 8K per well. Wells in column 12 were each filled with 200 μL of culture solution and the remaining wells were each filled with PBS. The SKBR3 and MDA-MB-468 cells were subjected to the same operations described above. […] 2 mM stock solution (stock solution diluted 10-fold in DMSO) was prepared in column 1 of drug preparation plate 1, and then 10-fold gradient dilution in DMSO was performed through column 10, and the wells in column 11 were filled with DMSO. […] The absorption value was read using a microplate reader and IC50 was calculated.

MDA-MB-468 (HER2-) = experiment: In vitro cytotoxic activity screening, CTG assay, MDA-MB-468; format: cell-based
Procedure: as §1, §2, §3

[2] = tested on: A549 (human non-small cell lung cancer cells); experiment: In vitro cytotoxic activity screening, CTG assay, A549; format: cell-based
Procedure: as §1, §2, §3

[3] = Pharmacokinetic experiment for beagles, intravenous administration; details: 0.5 mg/kg
Procedure: (§4) Plasma samples were stored in a refrigerator at −80° C. prior to testing.
as §4

SMILES: C=C1C[C@@H]2CC[C@@]34C[C@H]5O[C@H]6[C@@H](O3)[C@H]3O[C@H](CC[C@@H]3O[C@H]6[C@H]5O4)CC(=O)C[C@@H]3[C@@H](OC)[C@@H](C[C@@H](CN)OC)O[C@H]3C[C@H]3O[C@@H](CC[C@@H]1O2)C[C@@H](C)C3=C [Compound 1]
- IC50 ([1]; Homo sapiens, SK-BR-3, read-out: IC50 (nM) SKBR3): 0.205 nM
- Maximum inhibition rate (%) SKBR3 ([1]; SKBR3, CTG): 96.87%
- IC50 (MDA-MB-468 (HER2-); Homo sapiens, MDA-MB-468, read-out: IC50 (nM) MDA-MB-468): 0.183 nM
- Maximum inhibition rate (%) MDA-MB-468 (MDA-MB-468 (HER2-); MDA-MB-468, CTG): 88.01%
- Maximum inhibition rate (%) A549 ([2]; A549, CTG): 81.34%
- IC50 ([2]; Homo sapiens, A549, read-out: IC50 (nM) A549): 0.515 nM
- Plasma concentration C5 min [3]: 82.1 ng/mL
